The values that follow come from ChEMBL document CHEMBL4613284, “A Class of Potent Inhibitors of the HIV-1 Nucleocapsid Protein Based on Aminopyrrolic Scaffolds” (ACS Med Chem Lett, 2020).

A short description of series [1]: Cytotoxicity against human MT4 cells assessed as reduction in cell viability incubated for 5 days by MTT assay. In kind it is cell-based. Background: Tetrazolium assays rely on reduction of a dye to a coloured formazan, in cell work by metabolically active cells.
Series [2] in a line: Cytotoxicity against human U373 cells expressing CD4-CCR5 assessed as reduction in cell viability incubated for 48 hrs by luciferase assay. It is filed as cell-based, U-373MG ATCC. The following applies: U373 MG.
Series [3] deals with ssDNA. Briefly: Competitive binding affinity to HIV1 S3G5 oligonucleotide assessed as apparent equilibrium dissociation constant of NC(11 to 55 residues) to S3G5 oligonucleotide at 5 uM and 20 degreeC by isothermal titration calorimetry (reference value: 0.15 +/ 0.1 microM). It is filed as nucleic-acid assay. The conditions noted are these: Human immunodeficiency virus 1.
Series [4] addresses ssDNA. Kind of series: Competitive binding affinity to HIV1 S3G5 oligonucleotide assessed as equilibrium dissociation constant by isothermal titration calorimetry. It is filed as nucleic-acid assay, Human immunodeficiency virus 1. In general terms: ITC needs no label: the signal is the heat of the interaction.
Series [5] has as its system PBS RNA. Kind of series: Binding affinity to HIV1 nucleocapsid protein (11 to 55 residues)-targeted Rh6G-5'-(+)-PBS-3'-Dabcyl/(-)-PBS assessed as inhibition of NC-promoted annealing of +/- PBS sequence at 4 uM by spectrofluorimetry analysis relative to control. The following applies: Human immunodeficiency virus 1. It is filed as nucleic-acid assay.
Series [6] has as its system cTAR DNA. Kind of series: Binding affinity to HIV1 nucleocapsid protein (11 to 55 residues)-targeted Rh6G-5'-cTAR DNA-3'-Dabcyl/dTAR assessed as inhibition of NC-promoted annealing of Rh6G-5'-cTAR DNA-3'-Dabcyl/unlabeled dTAR at 4 uM after 25 hrs by spectrofluorimetry analysis relative to control. It is filed as nucleic-acid assay. The following applies: Human immunodeficiency virus 1.

Series [7] relates to Human immunodeficiency virus 1. Briefly: Binding affinity to HIV1 nucleocapsid protein (11 to 55 residues) assessed as change in fluorescence intensity of Trp37 residue up to 10 uM by fluorescence anisotropy assay. Background: In fluorescence polarisation assays a small probe gives low polarisation when free and higher when bound to something large.
The subject of series [8] is ssDNA. Briefly: Competitive binding affinity to HIV1 S3G5 oligonucleotide assessed as apparent equilibrium dissociation constant of NC(11 to 55 residues) to S3G5 oligonucleotide at 20 uM and 20 degreeC by isothermal titration calorimetry (reference value: 0.15 +/- 0.1 microM). It is filed as nucleic-acid assay. The following applies: Human immunodeficiency virus 1.
Series [9] relates to PBS RNA. Kind of series: Inhibition of annealing of HIV1 Rh6G-5'-(+)-PBS-3'-Dabcyl/(-)-PBS at 4 uM by spectrofluorimetry analysis relative to control. The following applies: Human immunodeficiency virus 1. It is filed as nucleic-acid assay.
Series [10] deals with ssDNA. Kind of series: Binding affinity to HIV1 single stranded fluorescein-labeled-5'-S3G5 oligonucleotide at 5'-S3G5 oligonucleotide to compound stoichiometry ratio of 1:3 by fluorescence anisotropy assay. The conditions noted are these: Human immunodeficiency virus 1. It is filed as nucleic-acid assay.
Series [11] in a line: Solubility of compound in water. It is filed as physicochemical. The conditions noted are these: buffer.
For series [12], the target named is cTAR DNA. Briefly: Binding affinity to HIV1 fluorescein-labeled-5'-cTAR DNA at cTAR to compound complex stoichiometry ratio of 1:3 using 30 mM NaCl by fluorescence anisotropy assay. In kind it is nucleic-acid assay, Human immunodeficiency virus 1.
Series [13] has as its system Human immunodeficiency virus 1. Kind of series: Binding affinity to HIV1 nucleocapsid protein (11 to 55 residues) assessed as increase in fluorescence intensity of Trp37 residue at 100 uM by fluorescence anisotropy assay.
In series [14] the test system is cTAR DNA. Briefly: Binding affinity to HIV1 propidium iodide-labeled-5'-cTAR DNA at cTAR to compound complex stoichiometry ratio of 1:3 using 30 mM NaCl by fluorescence anisotropy assay. In kind it is nucleic-acid assay. The following applies: Human immunodeficiency virus 1.
For series [15], the system named is cTAR DNA. Kind of series: Inhibition of annealing of HIV1 Rh6G5'-cTAR DNA-3'-Dabcyl/unlabeled dTAR at 4 uM after 25 hrs by spectrofluorimetry analysis. In kind it is nucleic-acid assay. The conditions noted are these: Human immunodeficiency virus 1.
In series [16] the test system is Human immunodeficiency virus 1. Briefly: Antiviral activity against HIV1 pNL4.3deltaenvLuc-ADA 8 pseudotyped virus infected in human U373-CD4-CCR5 cells assessed as reduction in viral infection measured after 48 hrs by luciferase assay. The conditions noted are these: Human immunodeficiency virus 1, 48 h. In kind it is functional, organism-based.
The subject of series [17] is cTAR DNA. Kind of series: Binding affinity to HIV1 fluorescein-labeled-5'-cTAR DNA at cTAR to compound complex stoichiometry ratio of 1:3 using 150 mM NaCl by fluorescence anisotropy assay. The following applies: Human immunodeficiency virus 1. It is filed as nucleic-acid assay.
Series [18] in a line: Therapeutic index, ratio of CC50 for human U373 cells expressing CD4-CCR5 to IC50 for HIV1 pNL4.3deltaenvLuc-ADA 8 pseudotyped virus infected in human U373-CD4-CCR5 cells. It is filed as toxicity, cell-based. The following applies: read-out: Ratio CC50/IC50.
For series [19], the target named is cTAR DNA. Briefly: Binding affinity to HIV1 fluorescein-labeled-5'-cTAR DNA at cTAR to compound complex stoichiometry ratio of 1:3 using 80 mM NaCl by fluorescence anisotropy assay. It is filed as nucleic-acid assay, Human immunodeficiency virus 1.
Series [20] has as its system PBS RNA. Briefly: Binding affinity to HIV1 propidium iodide-labeled double stranded (-)/(+)-PBS sequence by fluorescence anisotropy assay. In kind it is nucleic-acid assay. The following applies: Human immunodeficiency virus 1.
Series [21] has as its system cTAR DNA. Briefly: Binding affinity to HIV1 nucleocapsid protein (11 to 55 residues)-targeted Rh6G-5'-cTAR DNA-3'-Dabcyl/dTAR assessed as inhibition of NC-promoted annealing of Rh6G-5'-cTAR DNA-3'-Dabcyl/unlabeled dTAR at 0.4 uM by spectrofluorimetry analysis. It is filed as nucleic-acid assay. The following applies: Human immunodeficiency virus 1.
Series [22] has as its system Human immunodeficiency virus 1. Briefly: Antiviral activity against HIV1 3B infected in human MT4 cells assessed as protection against virus-induced cytopathic effect incubated for 5 days by MTT assay. The conditions noted are these: Human immunodeficiency virus 1, 3B, MT4, 120 h. In kind it is functional, organism-based.
For series [23], the system named is ssDNA. Kind of series: Competitive binding affinity to HIV1 S3G5 oligonucleotide at 20 degreeC by isothermal titration calorimetry. It is filed as nucleic-acid assay. The conditions noted are these: Human immunodeficiency virus 1.
The target in series [24] is cTAR DNA. Kind of series: Binding affinity to HIV1 nucleocapsid protein (11 to 55 residues)-targeted Rh6G-5'-cTAR DNA-3'-Dabcyl assessed as inhibition of NC-induced viral Rh6G-5'-cTAR DNA-3'-Dabcyl destabilization by measuring fluorescence intensity up to 60 mins by fluorescence assay. It is filed as nucleic-acid assay, Human immunodeficiency virus 1.
The subject of series [25] is Human immunodeficiency virus 1. Briefly: Binding affinity to HIV1 nucleocapsid protein (11 to 55 residues) assessed as change in fluorescence intensity of Trp37 residue up to 100 uM by fluorescence based analysis.

Activity calls are given as the source filed them. The rule behind the calls is not given here.

A word on the CC50: it is the concentration giving 50% cytotoxicity. One may read the IC50 as the concentration that gives 50% inhibition. The Kd is the concentration at which binding is half-saturated. The term inhibition denotes the change of the read-out against control, counted positive when it falls. Turning to `CCc1c(CN)c(CC)c2c(CC)c1CNCc1ccc([nH]1)CNCc1c(CC)c(CNCc3ccc[nH]3)c(CC)c(c1CC)CNCc1ccc([nH]1)CNC2`, the CC50 at 120 h in series [1] was 24 µM. The IC50 in [2] was found to be 15 µM; in [16], 1.8 µM; in [22], 13.5 µM; at cTAR DNA [24] it was 4.4 µM. The Kapp in the series with ssDNA [3] is 1.5 µM; in the series with ssDNA [8] it was 12 µM. The figures for the Kd on ssDNA [4], on cTAR DNA [12] and at cTAR DNA [19] were 0.26 µM, 0.23 µM and 2 µM, respectively. For the same molecule, the inhibition in the series on PBS RNA [5], in the series with cTAR DNA [6] and with PBS RNA [9] was 100% throughout. Moreover, the result (in series [7]; with cTAR DNA [17]; in the series on PBS RNA [20]; in [25]) was inactive. Moreover, in the series with ssDNA [10], the K was 0.6 µM. Further, the solubility entry in series [11] is listed as “Soluble”. Further, the result (in [13]; in the series with cTAR DNA [14]; in the series on cTAR DNA [21]) was Active. In the series with cTAR DNA [15], the inhibition entry is “Active”. The selectivity ratio in series [18] was determined as 8. In addition, in the series on ssDNA [23], the Activity entry was “Dose-dependent effect”.

For `CCc1c(CNCc2ccc[nH]2)c(CC)c(CNCc2ccc[nH]2)c(CC)c1CNCc1ccc[nH]1`, the IC50 at cTAR DNA [24] is 150 µM.

On to `CCc1c(CN)c(CC)c2c(CC)c1CNCc1ccc([nH]1)CNCc1c(CC)c(CN)c(CC)c(c1CC)CNCc1ccc([nH]1)CNC2`, for which the IC50 at cTAR DNA [24] turned out to be 4.9 µM.

For `c1c[nH]c(CNCc2ccc(CNCc3ccc[nH]3)c3c(CNCc4ccc[nH]4)ccc(CNCc4ccc[nH]4)c23)c1`, the IC50 on cTAR DNA [24] came to 10 µM.

As for `CCc1c(CN[C@@H]2CCCC[C@H]2N)c(CC)c2c(CC)c1CN[C@@H]1CCCC[C@H]1NCc1ccc([nH]1)CN[C@@H]1CCCC[C@H]1NC2`, the IC50 on cTAR DNA [24] stood at 60 µM.

Take `CCc1c(CN[C@@H]2CCCC[C@H]2NCc2ccc[nH]2)c(CC)c(CN[C@@H]2CCCC[C@H]2NCc2ccc[nH]2)c(CC)c1CN[C@@H]1CCCC[C@H]1NCc1ccc[nH]1`: the IC50 on cTAR DNA [24] amounted to 96 µM.

With `c1c[nH]c(CNCc2c(CNCc3ccc[nH]3)c(CNCc3ccc[nH]3)c(CNCc3ccc[nH]3)c(CNCc3ccc[nH]3)c2CNCc2ccc[nH]2)c1`, at cTAR DNA [24], the IC50 was found to be 52 µM.

For `c1c[nH]c(CNCc2cc(CNCc3ccc[nH]3)c(CNCc3ccc[nH]3)c(CNCc3ccc[nH]3)c2)c1`, the IC50 on cTAR DNA [24] was 130 µM.

On to `CCc1c(CNCCNCc2ccc[nH]2)c(CC)c(CNCCNCc2ccc[nH]2)c(CC)c1CNCCNCc1ccc[nH]1`, for which, at cTAR DNA [24], the IC50 came to 58 µM.

On to `CCc1c(CNCc2ccc[nH]2)c(CC)c2c(CC)c1CNCc1ccc([nH]1)CNCc1c(CC)c(CNCc3ccc[nH]3)c(CC)c(c1CC)CNCc1ccc([nH]1)CNC2`, for which, at cTAR DNA [24], the IC50 came out at 17 µM.

As for `CCc1c(CN[C@H]2CCCC[C@@H]2NCc2ccc[nH]2)c(CC)c(CN[C@H]2CCCC[C@@H]2NCc2ccc[nH]2)c(CC)c1CN[C@H]1CCCC[C@@H]1NCc1ccc[nH]1`, at cTAR DNA [24], the IC50 came to 93 µM.

For the molecule `CCc1c2c(CC)c(CN[C@H]3CCCC[C@@H]3N)c(CC)c1CN[C@H]1CCCC[C@@H]1NCc1ccc([nH]1)CN[C@H]1CCCC[C@@H]1NC2`, the IC50 at cTAR DNA [24] stood at 63 µM.
